Experimental data reported in ChEMBL document CHEMBL4138123, “Design, synthesis and biological evaluation of novel pyrazolochalcones as potential modulators of PI3K/Akt/mTOR pathway and inducers of apoptosis in breast cancer cells” (Eur J Med Chem, 2017).

Tests used:
Assay type in all cases: functional
[1] = tested on: UACC-257; test: Cytotoxicity against human UACC257 cells assessed as growth inhibition after 48 hrs by sulforhodamine B assay; conditions: UACC-257, 48 h
[2] = tested on: HCT-15; test: Cytotoxicity against human HCT15 cells assessed as growth inhibition after 48 hrs by sulforhodamine B assay; conditions: HCT-15, 48 h
[3] = tested on: SNB-19; test: Cytotoxicity against human SNB19 cells assessed as growth inhibition after 48 hrs by sulforhodamine B assay; conditions: SNB-19, 48 h
[4] = tested on: SN12C; test: Cytotoxicity against human SN12C cells assessed as growth inhibition after 48 hrs by sulforhodamine B assay
[5] = tested on: KM12; test: Cytotoxicity against human KM12 cells assessed as growth inhibition after 48 hrs by sulforhodamine B assay; conditions: KM12, 48 h
[6] = tested on: HL-60(TB); test: Cytotoxicity against human HL-60(TB) cells assessed as growth inhibition after 48 hrs by sulforhodamine B assay; conditions: HL-60, 48 h
[7] = tested on: HCC 2998; test: Cytotoxicity against human HCC2998 cells assessed as growth inhibition after 48 hrs by sulforhodamine B assay; conditions: HCC 2998, 48 h
[8] = tested on: Hs-578T; test: Cytotoxicity against human Hs 578T cells assessed as cell growth at 0.01 uM after 48 hrs by sulforhodamine B assay relative to control; conditions: read-out: Activity
[9] = tested on: NCI-H522; test: Cytotoxicity against human NCI-H522 cells assessed as cell growth at 0.01 uM after 48 hrs by sulforhodamine B assay relative to control; conditions: NCI-H522, 48 h, read-out: Activity
[10] = tested on: UACC-62; test: Cytotoxicity against human UACC62 cells assessed as cell growth at 10 uM after 48 hrs by sulforhodamine B assay relative to control; conditions: UACC-62, 48 h, read-out: Activity
[11] = tested on: OVCAR-5; test: Cytotoxicity against human OVCAR5 cells assessed as cell growth at 0.01 uM after 48 hrs by sulforhodamine B assay relative to control; conditions: OVCAR-5, 48 h, read-out: Activity
[12] = tested on: HCT-116; test: Cytotoxicity against human HCT116 cells assessed as cell growth at 0.1 uM after 48 hrs by sulforhodamine B assay relative to control; conditions: HCT-116, 48 h, read-out: Activity
[13] = tested on: NCI-H23; test: Cytotoxicity against human NCI-H23 cells assessed as cell growth at 100 uM after 48 hrs by sulforhodamine B assay relative to control; conditions: NCI-H23, 48 h, read-out: Activity
[14] = tested on: K562; test: Cytotoxicity against human K562 cells assessed as cell growth at 0.1 uM after 48 hrs by sulforhodamine B assay relative to control; conditions: K562, 48 h, read-out: Activity
[15] = tested on: KM12; test: Cytotoxicity against human KM12 cells assessed as cell growth at 1 uM after 48 hrs by sulforhodamine B assay relative to control; conditions: KM12, 48 h, read-out: Activity
[16] = tested on: HL-60(TB); test: Cytotoxicity against human HL-60(TB) cells assessed as cell growth at 10 uM after 48 hrs by sulforhodamine B assay relative to control; conditions: HL-60, 48 h, read-out: Activity
[17] = tested on: A498; test: Cytotoxicity against human A498 cells assessed as cell growth at 100 uM after 48 hrs by sulforhodamine B assay relative to control; conditions: A498, 48 h, read-out: Activity
[18] = tested on: PC-3; test: Cytotoxicity against human PC3 cells assessed as cell growth at 0.1 uM after 48 hrs by sulforhodamine B assay relative to control; conditions: PC-3, 48 h, read-out: Activity
[19] = tested on: ACHN; test: Cytotoxicity against human ACHN cells assessed as cell growth at 0.1 uM after 48 hrs by sulforhodamine B assay relative to control; conditions: read-out: Activity
[20] = tested on: K562; test: Cytotoxicity against human K562 cells assessed as cell growth at 100 uM after 48 hrs by sulforhodamine B assay relative to control; conditions: K562, 48 h, read-out: Activity
[21] = tested on: Malme-3M; test: Cytotoxicity against human MALME-3M cells assessed as cell growth at 0.01 uM after 48 hrs by sulforhodamine B assay relative to control; conditions: read-out: Activity
[22] = tested on: NCI-H226; test: Cytotoxicity against human NCI-H226 cells assessed as cell growth at 100 uM after 48 hrs by sulforhodamine B assay relative to control; conditions: NCI-H226, 48 h, read-out: Activity
[23] = tested on: OVCAR-8; test: Cytotoxicity against human OVCAR8 cells assessed as cell growth at 100 uM after 48 hrs by sulforhodamine B assay relative to control; conditions: OVCAR-8, 48 h, read-out: Activity
[24] = tested on: Hs-578T; test: Cytotoxicity against human Hs 578T cells assessed as cell growth at 100 uM after 48 hrs by sulforhodamine B assay relative to control; conditions: read-out: Activity
[25] = tested on: NCI-H322M; test: Cytotoxicity against human NCI-H322M cells assessed as cell growth at 10 uM after 48 hrs by sulforhodamine B assay relative to control; conditions: read-out: Activity
[26] = tested on: UACC-257; test: Cytotoxicity against human UACC257 cells assessed as cell growth at 100 uM after 48 hrs by sulforhodamine B assay relative to control; conditions: UACC-257, 48 h, read-out: Activity
[27] = tested on: OVCAR-8; test: Cytotoxicity against human OVCAR8 cells assessed as cell growth at 10 uM after 48 hrs by sulforhodamine B assay relative to control; conditions: OVCAR-8, 48 h, read-out: Activity
[28] = tested on: A498; test: Cytotoxicity against human A498 cells assessed as cell growth at 10 uM after 48 hrs by sulforhodamine B assay relative to control; conditions: A498, 48 h, read-out: Activity
[29] = tested on: NCI-H522; test: Cytotoxicity against human NCI-H522 cells assessed as cell growth at 100 uM after 48 hrs by sulforhodamine B assay relative to control; conditions: NCI-H522, 48 h, read-out: Activity
[30] = tested on: SF-268; test: Cytotoxicity against human SF268 cells assessed as cell growth at 0.1 uM after 48 hrs by sulforhodamine B assay relative to control; conditions: SF-268, 48 h, read-out: Activity
[31] = tested on: MDA-MB-231; test: Cytotoxicity against human MDA-MB-231 cells assessed as cell growth at 10 uM after 48 hrs by sulforhodamine B assay relative to control; conditions: MDA-MB-231, 48 h, read-out: Activity
[32] = tested on: MDA-MB-435; test: Cytotoxicity against human MDA-MB-435 cells assessed as cell growth at 100 uM after 48 hrs by sulforhodamine B assay relative to control; conditions: MDA-MB-435, 48 h, read-out: Activity
[33] = tested on: UACC-62; test: Cytotoxicity against human UACC62 cells assessed as cell growth at 100 uM after 48 hrs by sulforhodamine B assay relative to control; conditions: UACC-62, 48 h, read-out: Activity
[34] = tested on: NCI/ADR-RES; test: Cytotoxicity against human NCI/ADR-RES cells assessed as cell growth at 100 uM after 48 hrs by sulforhodamine B assay relative to control; conditions: read-out: Activity
[35] = tested on: RXF 393; test: Cytotoxicity against human RXF393 cells assessed as cell growth at 0.01 uM after 48 hrs by sulforhodamine B assay relative to control; conditions: RXF 393, 48 h, read-out: Activity

`COc1ccc(-c2cc(/C=C/C(=O)c3ccc4c(c3)OCO4)[nH]n2)cc1OC` gave a GI50 [1] of 2.16 µM, a GI50 [2] of 1.09 µM and a GI50 [3] of 1.67 µM. It also gave a GI50 [4] of 4.96 µM, a GI50 [5] of 0.62 µM and a GI50 [6] of 2.76 µM. It also gave a GI50 [7] of 1.74 µM.

Molecule `COc1cc(C(=O)/C=C/c2cc(-c3cc(OC)c(OC)c(OC)c3)n[nH]2)cc(OC)c1OC` has a growth at 0.01 µM [8] of 93%, an LC50 [1] of 5.71 µM and a TGI [1] of 2.99 µM. The growth at 0.01 µM [9] was 101%, the growth at 10 µM [10] was -69% and the growth at 0.01 µM [11] was 97%. It also gave a growth at 0.1 µM [12] of 104%, a growth at 100 µM [13] of -62% and a growth at 0.1 µM [14] of 104%. It also gave a growth at 1 µM [15] of 79%, an LC50 [2] of 7.19 µM and a TGI [2] of 3.29 µM. It also gave a growth at 10 µM [16] of -28%, a TGI [3] of 3.69 µM and a CC50 ([3]; read-out: LC50 (the source's name)) of 8.2 µM. For the same molecule, the growth at 100 µM [17] was -98%, the growth at 0.1 µM [18] was 92% and the LC50 [4] was 5.99 µM. The TGI [4] was 2.97 µM, the LC50 [5] was 5.77 µM and the TGI [5] was 2.93 µM. The growth at 0.1 µM [19] was 100%, the growth at 100 µM [20] was 1% and the LC50 [6] was > 100 µM. For the same molecule, the TGI [6] was 5.52 µM, the growth at 0.01 µM [21] was 100% and the growth at 100 µM [22] was -50%. For the same molecule, the growth at 100 µM [23] was -99%, the growth at 100 µM [24] was -4% and the growth at 10 µM [25] was -41%. It also gave a growth at 100 µM [26] of -99%, an LC50 [7] of 6.31 µM and a TGI [7] of 3.39 µM. It also gave a growth at 10 µM [27] of -76%, a growth at 10 µM [28] of -64% and a growth at 100 µM [29] of -98%. For the same molecule, the growth at 0.1 µM [30] was 99%, the growth at 10 µM [31] was -53% and the growth at 100 µM [32] was -83%. For the same molecule, the growth at 100 µM [33] was -97%, the growth at 100 µM [34] was -24% and the growth at 0.01 µM [35] was 93%.
